Columns and labels:
M109 lung carcinoma [1] = assay: M109 lung carcinoma, ip implanted; type: in vivo, BALB/c mice; conditions: 50 mg/kg/injection, q4d × 3, ip, 10% DMSO in saline; highest dose tested
Procedure: (§1) The M5076 reticulum cell sarcoma was passaged biweekly by sc transfer of tumor fragments into C57BL/6 mice, and the M109 lung carcinoma was similarly passaged in BALB/c mice. The LX-1 human lung carcinoma was passaged sc every two to three weeks in BALB/c-background athymic (nu/nu) mice. For use in these systems, compound III was dissolved in: (a) 100% DMSO and administered by iv injection in a fixed volume of 10 microliters; or (b) DMSO diluted with saline to a final concentration of 10% DMSO and administered iv in a volume of 0.01 milliliter/g of body weight. […] Mitomycin C and cyclophosphamide were dissolved and administered in saline. BCNU and MeCCNU were dissolved in ethanol and diluted 1:9 (v/v) with water prior to administration.
(§2) Five mice per group were employed in experiments with the B16F10 melanoma, and 8 mice per group with the M5076 sarcoma, the M109 carcinoma and the LX-1 carcinoma. […] Therapeutic results are presented in terms of: (a) increases in lifespan reflected by the relative median survival time (MST) of treated versus control groups (i.e., %T/C values), and by long-term survivors, and (b) primary tumor growth inhibition (i.e., T-C values) determined by calculating the relative median times for treated (T) and control untreated (C) mice to grow tumors of a 0.5 g size for the LX-1 carcinoma or a 1 g size for the murine neoplasms. […]

M109 lung carcinoma [2] = assay: M109 lung carcinoma, sc implanted; type: in vivo, BALB/c mice
Procedure: as §1
(§3) Five mice per group were employed in experiments with the B16F10 melanoma, and 8 mice per group with the M5076 sarcoma, the M109 carcinoma and the LX-1 carcinoma. A minimum of two dose levels per compound were included in each evaluation and drug therapy was initiated 24 h after tumor implantation for the M5076 sarcoma and M109 carcinoma. In the LX-1 experiment, tumor bearing mice were selected and sorted into treatment and control groups on day 6 post-tumor implant such that all tumor weights ranged from 50-100 mg and median tumor weights per group were reasonably similar. Therapeutic results are presented in terms of: (a) increases in lifespan reflected by the relative median survival time (MST) of treated versus control groups (i.e., %T/C values), and by long-term survivors, and (b) primary tumor growth inhibition (i.e., T-C values) determined by calculating the relative median times for treated (T) and control untreated (C) mice to grow tumors of a 0.5 g size for the LX-1 carcinoma or a 1 g size for the murine neoplasms. Tumor weights were interchangeable with tumor size on the basis of 1 mm^3 =1 mg. […] The activity criterion for tumor inhibition was a delay in tumor growth consistent with one log10 cell kill (LCK). The absolute T-C value needed to attain this level of efficacy varied from experiment to experiment and depended upon the tumor volume doubling time of the control mice in each study. Treated mice dying prior to day 10 in the ip M109 experiment, or dying before their tumors achieved 0.5 g for the LX-1 carcinoma or 1 g in size for all other sc tumor models, were considered to have died from drug toxicity. Groups of mice with more than one death due to drug toxicity were not used in the evaluation of antitumor efficacy. Statistical evaluations of data were performed using Gehan's generalized Wilcoxan test (Gehan, Biometrika, 1965, 52, 203-233).
Compound III was also evaluated against the M109 lung carcinoma implanted subcutaneously (sc). In the initial test using this model, a dose of 50 mg/kg per injection of this compound was administered intravenously (iv) in 10% DMSO in saline every fourth day for a total of three injections. […] Mitomycin C, used as a reference drug, produced a maximum %T/C of 103 and a delay in tumor growth of 10 days (data not shown). A subsequent evaluation of compound III was performed using four different doses on a slightly different schedule, i.e., 24, 32, 48 and 64 mg/kg administered every third day for four total injections, and two vehicles, 10% DMSO in saline and 100% DMSO. […] Cyclophosphamide and mitomycin C were included as reference drugs in the last experiment. The former compound produced a maximum %T/C of 143 and a delay in tumor growth of 8.8 days, while mitomycin C produced a maximum %T/C of 134 and a T-C value of 9.3 days (data not shown). As reported earlier, compound X achieved a maximum %T/C of 136 and a maximum T-C value of 14.5 days against this tumor (Shyam, et al., J. Med. Chem., 1993, 36, 3496).

[3] = test system: LX-1 human lung carcinoma; assay: LX-1 human lung carcinoma xenograft, sc in athymic mice; type: in vivo, human tumor in athymic (nu/nu) mice; conditions: 40 mg/kg/injection, q2d × 5 from day 6, iv, 100% DMSO
Procedure: as §1, §3
The human lung tumor, LX-1, xenografted sc in athymic mice, was also used to examine the antineoplastic potential of compound III. […]

[4] = test system: several more stringent distal site tumor models; assay: Comparison with clinically active alkylating agents in several distal site tumor models; type: in vivo, mice; conditions: qualitative summary
Procedure: B16F10 melanoma cells were grown in vitro as monolayers in minimum essential medium with Hank's salts supplemented with 10% fetal bovine serum and 1% 200 mM L-glutamine solution. Solid tumors were produced in C57BL/6 female mice 12- to 14-weeks of age by the intradermal injection in the right flank of each mouse of 0.1 mL of a cell suspension containing 10^6 B16F10 cells/mL from freshly trypsinized cultures. After 10-12 days, animals bearing approximately 100 mm^3 tumors were treated ip with compound III or IV dissolved in 100% DMSO for 6 consecutive days, and tumor volumes were measured on alternate days until reaching 1000 mm^3. […]
as §2

[5] = experiment a, 50 mg/kg/injection, q4d × 3, iv, 10% DMSO in saline
[6] = experiment b, 64 mg/kg/injection, q3d × 4, iv, 100% DMSO

CS(=O)(=O)N(CCCl)N(C(=O)NCCCl)S(C)(=O)=O [Compound III, 1,2-bis(methylsulfonyl)-1-(2-chloroethyl)-2-(2-chloroethyl)aminocarbonylhydrazine]
%T/C (median survival time) (M109 lung carcinoma [1]): 267%
lethality (in words) (M109 lung carcinoma [2]; 48 mg/kg per injection, q3d × 4, iv, 10% DMSO in saline): excessively lethal
antitumor effect versus 10% DMSO formulation, statistics (in words) (M109 lung carcinoma [2]; 64 mg/kg in 100% DMSO vs best T-C in 10% DMSO in saline, p<0.01): statistically superior (p<0.01)
treatment-associated lethalities (in words) (M109 lung carcinoma [2]; 64 mg/kg per injection, q3d × 4, iv, 100% DMSO): without causing any treatment-associated lethalities
%T/C (median survival time) (M109 lung carcinoma [2]; [5]): 115%
T-C, delay in tumor growth (M109 lung carcinoma [2]; [5]): 8.3 days
activity assessment of %T/C (in words) (M109 lung carcinoma [2]; experiment a, 50 mg/kg/injection, q4d × 3, iv, criterion T/C ≥125%): not considered to be an active result
%T/C (median survival time), maximum (M109 lung carcinoma [2]; experiment b, 24 mg/kg/injection, q3d × 4, iv, 10% DMSO in saline): 143%
T-C, maximum delay in tumor growth (M109 lung carcinoma [2]; experiment b, 32 mg/kg/injection, q3d × 4, iv, 10% DMSO in saline): 9.3 days
%T/C (median survival time), maximum (M109 lung carcinoma [2]; [6]): 145%
T-C, delay in tumor growth (M109 lung carcinoma [2]; [6]): 17.8 days
T-C, median delay in tumor growth to 0.5 g [3]: 14.5 days
log10 cell kill (LCK) [3]: 1.6 LCK
antitumor activity versus clinical alkylating agents (in words) [4]: better than or equal to some of the best clinically active alkylating agents used for comparison
